Experimental data as given in patent publication US20210322297A9, “COSMETIC COMPOSITIONS FOR PROTECTION AGAINST LIGHT-INDUCED DAMAGES” (priority 2018, published 2021).
Values joined by “and” are separate entries in the source; they are usually repeats but may differ in a detail not shown here. Identical values can stand only once.

Tested on: Human keratinocytes (HaCAT)
Assay: Carbonyl Score analysis: blue light (460 nm)-induced protein oxidative damage (carbonylation)
Type: cell-based
Description: Human keratinocytes (HaCAT) were irradiated in the presence or absence of a composition (C-1) comprising equal weight amounts of extracts (Q), (GS) and (GT) (VitakeloxTM) using an irradiation system available from OxiProteomics®. A solution of N-acetyl-cysteine was used as positive control of protection. Just after irradiation, proteins were extracted from the cells and analyzed. Carbonylated proteins were labeled with specific functionalized fluorescent probes and the resulting samples were resolved by high-resolution electrophoresis. Total proteins were post-stained with SyproTM Ruby protein gel stain. A Carbonyl (protein damage) Score was obtained for each sample after normalization of the fluorescent signal for carbonylated proteins by total proteins. A significant increase in protein oxidative damage was observed upon blue light irradiation. This increase was prevented in the presence of composition (C-1) at two different concentrations (0.01% and 0.005% w/v) and with two times of treatment (6 hours and 24 hours). HaCaT cells were cultured in calcium-free DMEM (Dulbecco's Modified Eagle Medium), with 10% SVF […], at 37° C. and humid atmosphere, supplemented with 5% CO2. Cells were seeded (500.000 cells/well) at day 0 (D0) in multi-well plates containing culture medium and distributed in 8 experimental groups as depicted in Table 1. On day 1 (D1), two solutions of composition (C-1) having two different concentrations (0.01% and 0.005%) were prepared by solubilisation of the composition in the culture medium. Experimental groups 4 and 6 were incubated for 24 hours (t2) with the solutions prior to irradiation. At day 2 (D2), experimental groups 3 and 5 were incubated for 6 hours (t1) prior to blue light irradiation. Groups 7 and 8 were incubated with a solution of NAC (N-acetyl-cysteine) for 6 and 24 hours. On day 2 (D2), the cells were washed and a stress was induced by irradiation with Blue Light (LED source, emission peak at λ=460 nm), using an OxiProteomics® irradiation system. Group 1 was not irradiated. Just after irradiation, cells were collected, snap-frozen and stored at -80° C. for the analysis. Proteins were extracted from cells, quantified by the Bradford method and split into equal amounts for analyses. […] After extraction and solubilisation, proteins in samples were quantified by the Bradford method using calibrated BSA (bovine serum albumin) as standard (Bradford M. Anal. Biochem., 72, 248, 1976). […] Proteins were fixed to the gel and the carbonylated proteins were evidenced by fluorescence scanning. […] Quantification was obtained from each sample, both for carbonylated and total proteins. […]

Structure (SMILES): CC(=O)N[C@@H](CS)C(=O)O [NAC, N-acetyl-cysteine]
- Carbonyl Score (NAC 6 h incubation before blue light irradiation, group G-7, carbonylated signal normalized by total protein signal): 0.734 and 0.742 and 0.657
- Oxidized proteins (NAC 6 h incubation before blue light irradiation, group G-7, densitometric signal per replicate): 12101.36 and 11379.65 and 10415.94
- Carbonyl Score (NAC 24 h incubation before blue light irradiation, group G-8, carbonylated signal normalized by total protein signal): 0.639 and 0.700 and 0.631
- Oxidized proteins (NAC 24 h incubation before blue light irradiation, group G-8, densitometric signal per replicate): 9126.82 and 11501.94 and 10859.53
